Legend:
Assay in all cases: radiometric filter-binding kinase assay, Kinase HotSpot
Settings in all cases: compound 0.5 µM; ATP 10 µM
[1] = target: ALK (human) (UniProt Q9UM73)
[2] = target: CAMK1 (human) (UniProt Q14012)
[3] = target: CDK4 CCND1 (human) (UniProt P24385+P11802)
[4] = target: CHUK (human) (UniProt O15111)
[5] = target: CLK1 (human) (UniProt P49759)
[6] = target: CLK2 (human) (UniProt P49760)
[7] = target: CLK3 (human) (UniProt P49761)
[8] = target: CSNK1G1 (human) (UniProt Q9HCP0)
[9] = target: DYRK4 (human) (UniProt Q9NR20)
[10] = target: EPHB2 (human) (UniProt P29323)
[11] = target: ERBB2 (human) (UniProt P04626)
[12] = target: ERBB4 (human) (UniProt Q15303)
[13] = target: HIPK1 (human) (UniProt Q86Z02)
[14] = target: IRAK1 (human) (UniProt P51617)
[15] = target: JAK2 JH1 JH2 (human) (UniProt O60674)
[16] = target: JAK3 JH1 JH2 (human) (UniProt P52333)
[17] = target: LRRK2 (human) (UniProt Q5S007)
[18] = target: MAP2K1 (human) (UniProt Q02750)
[19] = target: MAP3K11 (human) (UniProt Q16584)
[20] = target: MAP3K7 TAB1 (human) (UniProt O43318+Q15750)
[21] = target: MAPK1 (human) (UniProt P28482)
[22] = target: MARK3 (human) (UniProt P27448)
[23] = target: MKNK2 (human) (UniProt Q9HBH9)
[24] = target: MLTK (human) (UniProt Q9NYL2)
[25] = target: NEK4 (human) (UniProt P51957)
[26] = target: NTRK2 (human) (UniProt Q16620)
[27] = target: PAK2 (human) (UniProt Q13177)
[28] = target: PAK3 (human) (UniProt O75914)
[29] = target: PDPK1 (human) (UniProt O15530)
[30] = target: PLK2 (human) (UniProt Q9NYY3)
[31] = target: PRKD2 (human) (UniProt Q9BZL6)
[32] = target: PRKX (human) (UniProt P51817)
[33] = target: PTK6 (human) (UniProt Q13882)
[34] = target: RPS6KA4 KD2 (human) (UniProt O75676)
[35] = target: SRPK1 (human) (UniProt Q96SB4)
[36] = target: STK39 (human) (UniProt Q9UEW8)
[37] = target: TAOK2 (human) (UniProt Q9UL54)
[38] = target: TBK1 (human) (UniProt Q9UHD2)
[39] = target: TTK (human) (UniProt P33981)
[40] = target: TXK (human) (UniProt P42681)
[41] = target: VRK1 (human) (UniProt Q99986)
[42] = target: DYRK1A (human) (UniProt Q13627)

Sequence of TXK (human) (P42681 whole entry, looked up): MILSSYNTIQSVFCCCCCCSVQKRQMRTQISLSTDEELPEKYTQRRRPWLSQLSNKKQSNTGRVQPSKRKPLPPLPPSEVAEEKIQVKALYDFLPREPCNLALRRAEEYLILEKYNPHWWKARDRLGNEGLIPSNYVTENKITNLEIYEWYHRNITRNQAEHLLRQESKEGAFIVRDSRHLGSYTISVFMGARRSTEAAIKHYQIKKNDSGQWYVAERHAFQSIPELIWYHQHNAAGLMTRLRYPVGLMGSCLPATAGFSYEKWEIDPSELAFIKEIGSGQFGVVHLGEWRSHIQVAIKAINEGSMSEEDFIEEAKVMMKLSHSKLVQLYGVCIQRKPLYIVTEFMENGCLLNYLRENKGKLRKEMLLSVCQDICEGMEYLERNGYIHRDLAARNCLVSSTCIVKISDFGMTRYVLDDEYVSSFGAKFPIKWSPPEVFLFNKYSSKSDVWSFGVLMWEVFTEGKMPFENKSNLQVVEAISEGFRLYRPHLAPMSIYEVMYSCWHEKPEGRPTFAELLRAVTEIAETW
Sequence of PAK3 (human) (O75914 whole entry, looked up): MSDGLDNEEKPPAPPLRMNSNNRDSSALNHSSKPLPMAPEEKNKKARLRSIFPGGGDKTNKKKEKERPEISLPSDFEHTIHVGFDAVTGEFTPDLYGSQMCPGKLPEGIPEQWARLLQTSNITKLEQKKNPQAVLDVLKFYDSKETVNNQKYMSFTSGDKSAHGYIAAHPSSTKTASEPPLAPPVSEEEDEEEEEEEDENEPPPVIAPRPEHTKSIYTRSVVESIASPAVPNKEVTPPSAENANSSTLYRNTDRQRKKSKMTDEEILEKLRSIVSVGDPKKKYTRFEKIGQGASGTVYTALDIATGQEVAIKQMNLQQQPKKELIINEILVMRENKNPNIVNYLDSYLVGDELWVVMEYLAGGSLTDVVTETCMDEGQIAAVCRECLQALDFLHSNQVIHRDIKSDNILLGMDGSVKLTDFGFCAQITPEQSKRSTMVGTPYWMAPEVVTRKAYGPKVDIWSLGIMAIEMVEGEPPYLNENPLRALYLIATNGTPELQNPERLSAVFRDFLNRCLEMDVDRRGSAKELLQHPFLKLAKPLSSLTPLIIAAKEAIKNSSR
Sequence of DYRK4 (human) (Q9NR20 whole entry, looked up): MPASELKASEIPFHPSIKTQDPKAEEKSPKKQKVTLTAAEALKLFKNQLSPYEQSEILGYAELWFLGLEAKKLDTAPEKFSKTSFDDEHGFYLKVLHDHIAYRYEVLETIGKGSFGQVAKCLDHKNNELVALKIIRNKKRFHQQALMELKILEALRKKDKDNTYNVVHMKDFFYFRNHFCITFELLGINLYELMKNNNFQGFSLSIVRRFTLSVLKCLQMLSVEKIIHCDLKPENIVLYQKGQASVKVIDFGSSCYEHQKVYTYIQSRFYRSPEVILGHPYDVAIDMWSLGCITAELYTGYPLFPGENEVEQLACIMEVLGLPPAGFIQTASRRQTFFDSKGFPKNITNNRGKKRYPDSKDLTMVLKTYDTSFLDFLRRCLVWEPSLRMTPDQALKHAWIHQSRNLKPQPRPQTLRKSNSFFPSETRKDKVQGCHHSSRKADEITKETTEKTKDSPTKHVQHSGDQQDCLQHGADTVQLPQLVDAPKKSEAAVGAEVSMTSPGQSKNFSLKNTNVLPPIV
Sequence of NEK4 (human) (P51957 whole entry, looked up): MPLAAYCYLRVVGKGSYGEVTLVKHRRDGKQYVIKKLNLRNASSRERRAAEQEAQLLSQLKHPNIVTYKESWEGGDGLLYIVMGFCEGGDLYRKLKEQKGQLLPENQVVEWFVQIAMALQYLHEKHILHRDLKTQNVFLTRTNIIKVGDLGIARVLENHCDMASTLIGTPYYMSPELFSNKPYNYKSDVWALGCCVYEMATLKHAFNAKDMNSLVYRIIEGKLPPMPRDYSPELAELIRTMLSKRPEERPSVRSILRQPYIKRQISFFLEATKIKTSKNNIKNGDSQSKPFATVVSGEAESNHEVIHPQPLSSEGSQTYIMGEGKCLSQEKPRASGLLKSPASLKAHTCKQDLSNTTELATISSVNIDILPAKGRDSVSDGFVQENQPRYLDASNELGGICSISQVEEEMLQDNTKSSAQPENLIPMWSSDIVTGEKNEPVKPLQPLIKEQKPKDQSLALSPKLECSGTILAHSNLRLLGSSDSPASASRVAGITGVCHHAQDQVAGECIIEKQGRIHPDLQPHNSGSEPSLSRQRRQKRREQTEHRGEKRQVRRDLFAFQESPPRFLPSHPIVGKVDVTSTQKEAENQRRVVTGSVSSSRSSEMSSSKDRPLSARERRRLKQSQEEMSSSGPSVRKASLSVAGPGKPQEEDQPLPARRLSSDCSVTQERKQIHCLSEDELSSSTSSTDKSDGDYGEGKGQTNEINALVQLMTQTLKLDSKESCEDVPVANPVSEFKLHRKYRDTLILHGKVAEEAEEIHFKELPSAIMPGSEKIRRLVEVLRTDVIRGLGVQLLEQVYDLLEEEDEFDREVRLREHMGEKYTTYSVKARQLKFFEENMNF
Sequence of TTK (human) (P33981 whole entry, looked up): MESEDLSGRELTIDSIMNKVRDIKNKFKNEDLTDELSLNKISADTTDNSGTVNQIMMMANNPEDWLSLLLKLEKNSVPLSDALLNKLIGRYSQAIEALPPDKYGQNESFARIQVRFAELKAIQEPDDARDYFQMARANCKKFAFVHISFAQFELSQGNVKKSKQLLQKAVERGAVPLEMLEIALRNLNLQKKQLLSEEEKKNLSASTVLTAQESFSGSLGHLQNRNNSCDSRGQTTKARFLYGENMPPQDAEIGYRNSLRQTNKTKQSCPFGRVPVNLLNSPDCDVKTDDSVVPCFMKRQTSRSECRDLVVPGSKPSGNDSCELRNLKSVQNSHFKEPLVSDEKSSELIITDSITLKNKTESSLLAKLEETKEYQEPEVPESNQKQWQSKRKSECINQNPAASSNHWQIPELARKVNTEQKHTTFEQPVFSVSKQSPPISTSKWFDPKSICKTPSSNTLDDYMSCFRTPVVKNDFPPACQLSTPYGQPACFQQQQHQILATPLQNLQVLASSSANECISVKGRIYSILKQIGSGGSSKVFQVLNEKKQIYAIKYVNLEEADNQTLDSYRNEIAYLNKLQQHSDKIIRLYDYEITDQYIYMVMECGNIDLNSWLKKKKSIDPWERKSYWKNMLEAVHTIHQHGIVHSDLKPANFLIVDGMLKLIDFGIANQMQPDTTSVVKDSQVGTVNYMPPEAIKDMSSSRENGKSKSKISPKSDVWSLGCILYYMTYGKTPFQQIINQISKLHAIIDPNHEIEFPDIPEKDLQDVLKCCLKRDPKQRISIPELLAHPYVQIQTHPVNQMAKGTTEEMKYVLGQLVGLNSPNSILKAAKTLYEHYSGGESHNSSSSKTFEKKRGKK
Sequence of MAP2K1 (human) (Q02750 whole entry, looked up): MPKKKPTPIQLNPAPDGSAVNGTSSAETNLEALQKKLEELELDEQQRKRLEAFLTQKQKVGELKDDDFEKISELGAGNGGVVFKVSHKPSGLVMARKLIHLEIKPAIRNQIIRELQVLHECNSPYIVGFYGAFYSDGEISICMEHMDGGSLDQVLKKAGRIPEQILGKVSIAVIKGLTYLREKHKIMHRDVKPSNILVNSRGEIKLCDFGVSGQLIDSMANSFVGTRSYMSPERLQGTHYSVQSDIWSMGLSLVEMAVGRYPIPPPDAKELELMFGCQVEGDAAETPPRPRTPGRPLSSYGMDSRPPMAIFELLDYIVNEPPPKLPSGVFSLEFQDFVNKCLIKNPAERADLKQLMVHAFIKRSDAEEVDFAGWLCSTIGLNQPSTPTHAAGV
Sequence of VRK1 (human) (Q99986 whole entry, looked up): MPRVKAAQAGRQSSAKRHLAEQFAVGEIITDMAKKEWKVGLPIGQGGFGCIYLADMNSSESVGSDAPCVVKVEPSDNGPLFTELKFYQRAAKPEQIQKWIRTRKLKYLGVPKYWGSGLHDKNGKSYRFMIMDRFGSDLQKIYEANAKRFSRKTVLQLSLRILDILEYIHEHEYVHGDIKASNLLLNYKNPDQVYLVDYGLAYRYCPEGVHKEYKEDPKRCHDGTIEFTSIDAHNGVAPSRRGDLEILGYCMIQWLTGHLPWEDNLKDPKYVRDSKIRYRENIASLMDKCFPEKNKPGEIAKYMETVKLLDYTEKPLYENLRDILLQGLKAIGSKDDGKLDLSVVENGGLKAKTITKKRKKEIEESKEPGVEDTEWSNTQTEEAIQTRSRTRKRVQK
Sequence of MAPK1 (human) (P28482 whole entry, looked up): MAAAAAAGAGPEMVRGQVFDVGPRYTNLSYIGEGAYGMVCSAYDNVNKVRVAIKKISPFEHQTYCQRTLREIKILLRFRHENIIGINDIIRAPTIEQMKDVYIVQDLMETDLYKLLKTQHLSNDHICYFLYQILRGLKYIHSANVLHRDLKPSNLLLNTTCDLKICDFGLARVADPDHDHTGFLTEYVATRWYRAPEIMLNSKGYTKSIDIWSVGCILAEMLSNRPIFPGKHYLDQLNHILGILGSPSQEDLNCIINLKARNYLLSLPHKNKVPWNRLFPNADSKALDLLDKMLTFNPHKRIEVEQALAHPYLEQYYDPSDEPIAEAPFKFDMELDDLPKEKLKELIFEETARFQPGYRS
Sequence of CSNK1G1 (human) (Q9HCP0 whole entry, looked up): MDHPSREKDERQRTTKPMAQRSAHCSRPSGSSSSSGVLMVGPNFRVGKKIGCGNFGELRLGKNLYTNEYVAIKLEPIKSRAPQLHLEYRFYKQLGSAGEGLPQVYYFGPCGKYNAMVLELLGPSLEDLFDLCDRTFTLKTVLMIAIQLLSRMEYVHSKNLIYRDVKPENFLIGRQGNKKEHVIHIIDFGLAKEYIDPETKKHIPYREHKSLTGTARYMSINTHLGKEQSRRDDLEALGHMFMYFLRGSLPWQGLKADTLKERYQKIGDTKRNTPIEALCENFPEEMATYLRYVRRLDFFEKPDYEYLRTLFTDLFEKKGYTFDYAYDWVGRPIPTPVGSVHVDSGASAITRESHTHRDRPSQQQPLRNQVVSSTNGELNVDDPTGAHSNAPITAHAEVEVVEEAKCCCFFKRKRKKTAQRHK

CCCC(=O)Oc1ccc2[nH]c(C(=O)c3cc4ccccc4[nH]3)cc2c1
residual activity [1]: 83.7% | residual activity [2]: 98.8% | residual activity [3]: 106% | residual activity [4]: 94.5% | residual activity [5]: 99.3% | residual activity [6]: 94.3% | residual activity [7]: 96.9% | residual activity [8]: 76.1% | residual activity [9]: 86% | residual activity [10]: 98.4% | residual activity [11]: 85.9% | residual activity [12]: 99.8% | residual activity [13]: 101% | residual activity [14]: 90.5% | residual activity [15]: 106% | residual activity [16]: 95.6% | residual activity [17]: 101% | residual activity [18]: 99.9% | residual activity [19]: 98.7% | residual activity [20]: 92.1% | residual activity [21]: 105% | residual activity [22]: 92.1% | residual activity [23]: 105% | residual activity [24]: 104% | residual activity [25]: 96.4% | residual activity [26]: 89.8% | residual activity [27]: 102% | residual activity [28]: 102% | residual activity [29]: 101% | residual activity [30]: 101% | residual activity [31]: 91.7% | residual activity [32]: 96.1% | residual activity [33]: 85.4% | residual activity [34]: 99.1% | residual activity [35]: 105% | residual activity [36]: 117% | residual activity [37]: 110% | residual activity [38]: 119% | residual activity [39]: 85.7% | residual activity [40]: 99.1% | residual activity [41]: 85.9%

CCN(CC)C(=O)c1ccc(Nc2nc(OCC3CCCCC3)c3nc[nH]c3n2)cc1
residual activity [1]: 74.9% | residual activity [2]: 85.6% | residual activity [3]: 82% | residual activity [4]: 103% | residual activity [5]: 74.1% | residual activity [6]: 40.6% | residual activity [7]: 84.1% | residual activity [8]: 68.5% | residual activity [42]: 91.9% | residual activity [9]: 93.6% | residual activity [10]: 93.7% | residual activity [11]: 99.4% | residual activity [12]: 91% | residual activity [13]: 104% | residual activity [14]: 93.8% | residual activity [15]: 4.21% | residual activity [16]: 6.39% | residual activity [17]: 2.21% | residual activity [18]: 94.1% | residual activity [19]: 5.55% | residual activity [20]: 57.1% | residual activity [21]: 106% | residual activity [22]: 85.4% | residual activity [23]: 89.3% | residual activity [24]: 91.4% | residual activity [25]: 87.9% | residual activity [26]: 54.3% | residual activity [28]: 87.7% | residual activity [29]: 69.1% | residual activity [30]: 98.2% | residual activity [31]: 67% | residual activity [32]: 93.4% | residual activity [33]: 30.7% | residual activity [34]: 79.8% | residual activity [35]: 91.7% | residual activity [36]: 91.5% | residual activity [37]: 66% | residual activity [38]: 25.4% | residual activity [39]: 47.8% | residual activity [40]: 46% | residual activity [41]: 93.1%

Cc1ccc(Nc2nccc(N(C)c3ccc4c(C)n(C)nc4c3)n2)cc1S(N)(=O)=O
residual activity [1]: 85.3% | residual activity [2]: 87.4% | residual activity [3]: 88.4% | residual activity [4]: 99.4% | residual activity [5]: 103% | residual activity [6]: 90.9% | residual activity [7]: 107% | residual activity [8]: 100% | residual activity [9]: 106% | residual activity [10]: 91.9% | residual activity [11]: 103% | residual activity [12]: 86.9% | residual activity [13]: 97.6% | residual activity [14]: 97% | residual activity [15]: 101% | residual activity [16]: 95.3% | residual activity [17]: 109% | residual activity [18]: 106% | residual activity [20]: 90.6% | residual activity [21]: 103% | residual activity [22]: 96.6% | residual activity [23]: 107% | residual activity [24]: 96.9% | residual activity [25]: 91.1% | residual activity [26]: 91.5% | residual activity [27]: 98.9% | residual activity [28]: 90.6% | residual activity [29]: 93% | residual activity [30]: 101% | residual activity [31]: 90.8% | residual activity [32]: 101% | residual activity [33]: 66.2% | residual activity [34]: 102% | residual activity [35]: 100% | residual activity [36]: 95.9% | residual activity [37]: 26.8% | residual activity [38]: 99.5% | residual activity [39]: 73.4% | residual activity [40]: 40.2% | residual activity [41]: 100%

From the kinase profiling compilation of Christmann-Franck et al. (2016)
